# Measured values reported in patent US9725423B2, “Tetrazolinone compound and applications thereof” (SUMITOMO CHEMICAL COMPANY, LIMITED, priority 2012, dated 2017).
# How the values were obtained:
# [1] = tested on: cucumber powdery mildew fungus (Sphaerotheca fuliginea); test: Cucumber powdery mildew control test, foliar spray on cucumber (Test Examples 6, 12, Comparative Test Example); assay type: in vivo; details: 200 ppm, cucumber (SAGAMI HANJIRO), 8 days after inoculation
# [2] = tested on: diamondback moth (Plutella xylostella); test: Diamondback moth mortality test on sprayed cabbage (Test Example 15); assay type: in vivo; details: 120 h, 20 mL/cup sprayed on cabbage, second-instar larvae, 25° C., after 5 days
# Description: Each of formulations of the present compounds 6, 9, 26, 28, 31, 32, 33, 36, 71, 109, 114, 115, 125, and 149 obtained in Formulation Example 6 was diluted with water so that the concentration of the active ingredient is controlled to 500 ppm to prepare a test spraying solution. Meanwhile, the above test chemical solution was sprayed over three-leaf stage cabbage sowed in a polyethylene cup in the proportion of 20 mL/cup. After drying the chemical solution, stem and leaf portions were cut off and put in a 50 mL cup and five second-instar larvae of diamondback moth (Plutella xylostella) were released, and then the cup was capped. The cup was stored at 25° C. and, after 5 days, the number of surviving worms was counted and mortality was determined by the following equation. Mortality (%)=[(Number of dead insects)/(Number of tested insects)]×100
Compound,area of lesion spots relative to that on an untreated plant [1],mortality at 500 ppm [2]
"CC(=NOCc1cccc(C)c1-n1nnn(C)c1=O)c1cccc(C(F)(F)F)c1 [1-methyl-4-{2-methyl-6-[1-(3-trifluoromethylphenyl)ethylideneaminooxymethyl]phenyl}-1,4-dihydrotetrazol-5-one]",≥ 70%,–
"CC(=NOCc1c(C)cccc1-n1nnn(C)c1=O)c1cccc(C(F)(F)F)c1 [1-{3-methyl-2-[1-(3-trifluoromethylphenyl)ethylideneaminooxymethyl]phenyl}-4-methyl-1,4-dihydrotetrazol-5-one]",≤ 30%,–
"CC(=NOCc1c(Cl)cccc1-n1nnn(C)c1=O)c1cccc([N+](=O)[O-])c1 [present compound 6, 1-{3-chloro-2-[1-(3-nitrophenyl)ethylideneaminooxymethyl]phenyl}-4-methyl-1,4-dihydrotetrazol-5-one]",–,≥ 80%
"CC(=NOCc1c(Cl)cccc1-n1nnn(C)c1=O)c1cccc(OC(F)(F)C(F)F)c1 [present compound 9, 1-(3-chloro-2-{1-[3-(1,1,2,2-tetrafluoroethoxyl)phenyl]ethylideneaminooxymethyl]phenyl}-4-methyl-1,4-dihydrotetrazol-5-one]",–,≥ 80%
"Cn1nnn(-c2cccc(Cl)c2CON=C(c2ccccc2)C(F)(F)F)c1=O [present compound 26, 1-[3-chloro-2-(2,2,2-trifluoro-1-phenylethylideneaminooxymethyl)phenyl]-4-methyl-1,4-dihydrotetrazol-5-one]",–,≥ 80%
"CC(=NOCc1c(Cl)cccc1-n1nnn(C)c1=O)c1cc(F)cc(F)c1 [present compound 28, 1-{3-chloro-2-[1-(3,5-difluorophenyl)ethylideneaminooxymethyl]phenyl}-4-methyl-1,4-dihydrotetrazol-5-one]",–,≥ 80%
"CC(=NOCc1c(C)cccc1-n1nnn(C)c1=O)c1cccc(Cl)c1 [present compound 31, 1-{3-methyl-2-[1-(3-chlorophenyl)ethylideneaminooxymethyl]phenyl}-4-methyl-1,4-dihydrotetrazol-5-one]",–,≥ 80%
"CC(=NOCc1c(C)cccc1-n1nnn(C)c1=O)c1cccc(OC(F)(F)F)c1 [present compound 32, 1-{3-methyl-2-[1-(3-trifluoromethoxyphenyl)ethylideneaminooxymethyl]phenyl}-4-methyl-1,4-dihydrotetrazol-5-one]",–,≥ 80%
"CC(=NOCc1c(C)cccc1-n1nnn(C)c1=O)c1cccc(OC(F)(F)C(F)F)c1 [present compound 33, 1-(3-methyl-2-{1-[3-(1,1,2,2-tetrafluoroethoxyl)phenyl]ethylideneaminooxymethyl}phenyl)-4-methyl-1,4-dihydrotetrazol-5-one]",–,≥ 80%
"CC(=NOCc1c(C)cccc1-n1nnn(C)c1=O)c1ccc2ccccc2c1 [present compound 36, 1-[3-methyl-2-(1-naphthalen-2-ylethylideneaminooxymethyl)phenyl]-4-methyl-1,4-dihydrotetrazol-5-one]",–,≥ 80%
"CC(=NOCc1c(C)cccc1-n1nnn(C)c1=O)c1cccc(C)c1 [present compound 71, 1-{3-methyl-2-[1-(3-methylphenyl)ethylideneaminooxymethyl]phenyl}-4-methyl-1,4-dihydrotetrazol-5-one]",–,≥ 80%
"CC(=NOCc1c(C)cccc1-n1nnn(C)c1=O)c1cccc(N(C)C)c1 [present compound 109, 1-{2-[1-(3-dimethylaminophenyl)ethylideneaminooxymethyl]-3-methylphenyl}-4-methyl-1,4-dihydrotetrazol-5-one]",–,≥ 80%
"CC(=NOCc1c(-n2nnn(C)c2=O)cccc1C(F)(F)F)c1cccc(OC(F)(F)F)c1 [present compound 114, 1-{2-[1-(3-trifluoromethoxyphenyl)ethylideneaminooxymethyl]-3-trifluoromethylphenyl}-4-methyl-1,4-dihydrotetrazol-5-one]",–,≥ 80%
"CC(=NOCc1c(-n2nnn(C)c2=O)cccc1C(F)(F)F)c1ccc2c(c1)CCC2 [present compound 115, 1-[2-(1-indan-5-ylethylideneaminooxymethyl)-3-trifluoromethylphenyl]-4-methyl-1,4-dihydrotetrazol-5-one]",–,≥ 80%
"CC(=NOCc1c(C2CC2)cccc1-n1nnn(C)c1=O)c1cccc2c1CCC2 [present compound 125, 1-[3-cyclopropyl-2-(1-indan-4-ylethylideneaminooxymethyl)phenyl]-4-methyl-1,4-dihydrotetrazol-5-one]",–,≥ 80%
"CC(=NOCc1c(C)cccc1-n1nnn(C)c1=O)c1ccccc1 [present compound 149, 1-[2-(1-phenylethylideneaminooxymethyl)-3-methylphenyl]-4-methyl-1,4-dihydrotetrazol-5-one]",–,≥ 80%
